Data as given in US10131652B2, “Pyrimidinyloxy benzene derivatives as herbicides” (E. I. DU PONT DE NEMOURS AND COMPANY, priority 2014, dated 2018).

Key:
Type in all cases: in vivo
[1] = test system: pigweed (Amaranthus retroflexus); assay: Test B pre-/postemergence plant response
Method in brief: (§1)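 Ratings reflect visual injury versus untreated controls, from 0 for no effect to 100 for complete control, assessed roughly 10 days after treatment. Formulation: non-phytotoxic solvent mix with surfactant; pre- and postemergence sprays on plants grown in loam soil and sand.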

[2] = test system: corn (Zea mays); assay: Test B pre-/postemergence plant response
Method in brief: as §1

[3] = test system: barnyardgrass (Echinochloa crus-galli); assay: Test B pre-/postemergence plant response
Method in brief: as §1

[4] = test system: giant foxtail (Setaria faberii); assay: Test B pre-/postemergence plant response
Method in brief: as §1

[5] = test system: wheat (Triticum aestivum); assay: Test B pre-/postemergence plant response
Method in brief: as §1

[6] = test system: barnyardgrass (Echinochloa crus-galli); assay: Test C flooded paddy test plant response; details: Flood, 250 g ai/ha; scale of 0 to 100 where 0 is no effect and 100 is complete control; 13 to 15 days
Method in brief: (§2)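 Plants grown to the 2-leaf stage; pots flooded to 3 cm above soil, test compounds applied directly to paddy water, depth maintained throughout. Greenhouse for 13 to 15 days, then visual rating versus controls on a 0–100 scale (0 no effect, 100 complete control).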

[7] = test system: ducksalad (Heteranthera limosa); assay: Test C flooded paddy test plant response; details: Flood, 250 g ai/ha; scale of 0 to 100 where 0 is no effect and 100 is complete control; 13 to 15 days
Method in brief: as §2

[8] = test system: small-flower umbrella sedge (Cyperus difformis); assay: Test C flooded paddy test plant response; details: Flood, 250 g ai/ha; scale of 0 to 100 where 0 is no effect and 100 is complete control; 13 to 15 days
Method in brief: as §2

[9] = test system: rice (Oryza sativa); assay: Test C flooded paddy test plant response; details: Flood, 250 g ai/ha; scale of 0 to 100 where 0 is no effect and 100 is complete control; 13 to 15 days
Method in brief: as §2

[10] = test system: oilseed rape (Brassica napus); assay: Test D pre-/postemergence plant response; details: Postemergence; for Plant response rating (scale 0 to 100), Oilseed Rape: 16 g ai/ha; for Plant response rating, Oilseed Rape: 125 g ai/ha
Method in brief: (§3)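 Visual injury scoring (0–100) at 13 to 15 days in greenhouse. Preemergence sprays on seeded loam/sand; postemergence sprays on 1–4 leaf plants.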

[11] = test system: winter wheat (Triticum aestivum); assay: Test D pre-/postemergence plant response; details: Postemergence; for Plant response rating (scale 0 to 100), Wheat: 16 g ai/ha; for Plant response rating, Wheat: 125 g ai/ha
Method in brief: as §3

[12] = test system: yellow nutsedge (Cyperus esculentus); assay: Test D pre-/postemergence plant response; details: Postemergence; for Plant response rating (scale 0 to 100), Nutsedge, Yellow: 16 g ai/ha; for Plant response rating, Nutsedge, Yellow: 125 g ai/ha
Method in brief: as §3

[13] = test system: johnsongrass (Sorghum halepense); assay: Test D pre-/postemergence plant response; details: Postemergence; for Plant response rating (scale 0 to 100), Johnsongrass: 16 g ai/ha
Method in brief: as §3

[14] = test system: ragweed (common ragweed, Ambrosia elatior); assay: Test D pre-/postemergence plant response; details: Postemergence; for Plant response rating (scale 0 to 100), Ragweed: 16 g ai/ha; for Plant response rating, Ragweed: 125 g ai/ha
Method in brief: as §3

[15] = test system: galium (catchweed bedstraw, Galium aparine); assay: Test D pre-/postemergence plant response; details: Postemergence; for Plant response rating (scale 0 to 100), Galium: 16 g ai/ha
Method in brief: as §3

[16] = 31 g ai/ha, Preemergence, 0 to 100 scale where 0 is no effect and 100 is complete control
[17] = 125 g ai/ha, postemergence, 0 to 100 scale, 0 no effect, 100 complete control
[18] = Postemergence, 31 g ai/ha, 0 to 100 scale (0 no effect, 100 complete control)
[19] = Preemergence, 125 g ai/ha, 0 to 100 scale (0 no effect, 100 complete control)
[20] = 62 g ai/ha, scale 0 to 100, 0 no effect, 100 complete control
[21] = scale 0 to 100, 0 no effect, 100 complete control
[22] = 31 g ai/ha, scale 0 to 100 (0 no effect, 100 complete control)
[23] = 125 g ai/ha, scale 0 to 100, 0 no effect, 100 complete control

Structure (SMILES): FC(F)c1cc(-c2ccccc2Oc2ncc(Br)cn2)on1 [Compound 212]
- Plant response rating, Pigweed [1, 16]: 100
- Plant response rating, Pigweed [1, 17]: 100
- Plant response rating, Pigweed [1, 18]: 90
- Pigweed plant response rating [1, 19]: 100
- Plant response rating, Corn [2, 17]: 20
- Plant response rating, Corn [2, 18]: 10
- Plant response rating, Barnyardgrass [3, 16]: 10
- Plant response rating, Barnyardgrass [3, 17]: 30
- Plant response rating, Barnyardgrass [3, 18]: 0
- Barnyardgrass plant response rating [3, 19]: 60
- Plant response rating, Foxtail, Giant [4, 16]: 60
- Plant response rating, Foxtail, Giant [4, 17]: 70
- Plant response rating, Foxtail, Giant [4, 18]: 10
- Foxtail, Giant plant response rating [4, 19]: 100
- Plant response rating, Wheat [5, 17]: 10
- Plant response rating, Wheat [5, 18]: 0
- Barnyardgrass plant response rating [6]: 0
- Ducksalad plant response rating [7]: 75
- Sedge, Umbrella plant response rating [8]: 75
- Rice plant response rating [9]: 20
- Plant response rating (scale 0 to 100), Oilseed Rape [10]: 10
- Oilseed Rape plant response rating [10, 20]: 20
- Plant response rating, Oilseed Rape [10, 21]: 35
- Plant response rating (scale 0 to 100), Wheat [11]: 0
- Wheat plant response rating [11, 22]: 5
- Wheat plant response rating [11, 20]: 5
- Plant response rating, Wheat [11, 21]: 15
- Plant response rating (scale 0 to 100), Nutsedge, Yellow [12]: 10
- Nutsedge, Yellow plant response rating [12, 22]: 5
- Nutsedge, Yellow plant response rating [12, 20]: 10
- Plant response rating, Nutsedge, Yellow [12, 21]: 5
- Plant response rating (scale 0 to 100), Johnsongrass [13]: 5
- Johnsongrass plant response rating [13, 22]: 5
- Plant response rating, Johnsongrass [13, 20]: 20
- Plant response rating, Johnsongrass [13, 23]: 20
- Plant response rating (scale 0 to 100), Ragweed [14]: 35
- Ragweed plant response rating [14, 22]: 40
- Ragweed plant response rating [14, 20]: 55
- Plant response rating, Ragweed [14, 21]: 60
- Plant response rating (scale 0 to 100), Galium [15]: 60
- Galium plant response rating [15, 22]: 60
- Plant response rating, Galium [15, 20]: 65
- Plant response rating, Galium [15, 23]: 80

Structure (SMILES): Cc1cc(-c2c(F)cccc2Oc2ncc(Br)cn2)on1 [Compound 230]
- Plant response rating, Pigweed [1, 16]: 90
- Plant response rating, Pigweed [1, 17]: 90
- Plant response rating, Pigweed [1, 18]: 60
- Pigweed plant response rating [1, 19]: 100
- Plant response rating, Corn [2, 17]: 10
- Plant response rating, Corn [2, 18]: 0
- Plant response rating, Barnyardgrass [3, 16]: 10
- Plant response rating, Barnyardgrass [3, 17]: 60
- Plant response rating, Barnyardgrass [3, 18]: 0
- Barnyardgrass plant response rating [3, 19]: 70
- Plant response rating, Foxtail, Giant [4, 16]: 60
- Plant response rating, Foxtail, Giant [4, 17]: 70
- Plant response rating, Foxtail, Giant [4, 18]: 0
- Foxtail, Giant plant response rating [4, 19]: 90
- Plant response rating, Wheat [5, 17]: 10
- Plant response rating, Wheat [5, 18]: 0
- Barnyardgrass plant response rating [6]: 40
- Ducksalad plant response rating [7]: 85
- Sedge, Umbrella plant response rating [8]: 85
- Rice plant response rating [9]: 20
- Plant response rating (scale 0 to 100), Oilseed Rape [10]: 50
- Oilseed Rape plant response rating [10, 22]: 60
- Oilseed Rape plant response rating [10, 20]: 75
- Plant response rating, Oilseed Rape [10, 21]: 75
- Plant response rating (scale 0 to 100), Wheat [11]: 5
- Wheat plant response rating [11, 22]: 5
- Wheat plant response rating [11, 20]: 5
- Plant response rating, Wheat [11, 21]: 15
- Plant response rating (scale 0 to 100), Nutsedge, Yellow [12]: 0
- Nutsedge, Yellow plant response rating [12, 22]: 0
- Nutsedge, Yellow plant response rating [12, 20]: 5
- Plant response rating, Nutsedge, Yellow [12, 21]: 5
- Plant response rating (scale 0 to 100), Johnsongrass [13]: 0
- Johnsongrass plant response rating [13, 22]: 0
- Johnsongrass plant response rating [13, 20]: 5
- Plant response rating, Johnsongrass [13, 23]: 5
- Plant response rating (scale 0 to 100), Ragweed [14]: 30
- Ragweed plant response rating [14, 22]: 40
- Ragweed plant response rating [14, 20]: 55
- Plant response rating, Ragweed [14, 21]: 55
- Plant response rating (scale 0 to 100), Galium [15]: 80
- Galium plant response rating [15, 22]: 85
- Galium plant response rating [15, 20]: 85
- Plant response rating, Galium [15, 23]: 95
